Like-named read-outs stand apart in the source and are kept apart here.
How the values were obtained:
[1] = Gastric lesions and toxicity in rodents; settings: in vivo
From the text: This may be related to the absence of use of toxic ingredients such as sodium azide or potassium azide.

[2] = tested on: Dunning R-3227-AT-1 prostate cancer model; settings: rats; compared with equivalent dose of L651582; U.S. Pat. No. 5,912,346; cited from earlier work
[3] = tested on: HT29 human colon tumor xenografts; experiment: Anticancer activity in s.c.-implanted HT29 human colon tumor xenografts; type: in vivo, mice; settings: CTO 343 mg/kg/day, days 13-26; measured at 41 days; control 1436 mm^3; p=0.0050 vs control
Protocol: The effect of CTO M.W. of 580.8 and CAI M.W. of 424.6+Orotic Acid M.W. of 156.1, was studied in s.c.-implanted HT29 human colon tumor xenografts in male, athymic NCr-n u/nu mice. 6 week old mice were implanted with HT29 fragments and 13 days later were sorted in […] groups of ten. For the next 14 days (13-26 days), Group 1 control (C) received the vehicle; Group 2=343 mg/kg/dose; Group 3=240 mg/kg/day CAI+103 mg/kg/day orotic acid. At 41 days, the mean tumor volume (mm^3) was measured as shown below: • Group 1 (Control)=1436 mm^3 • Group 2 (CTO343 mg/kg/day)=864 mm^3 (p=0.0050, Gr2 vs Gr 1) • Group 3 (CAI […]+Orotic Acid 103 mg/kg/day)=1268 mm^3 (p=0.2706,Gr 3 vs Gr 1). […] However, CAI+Orotic acid formulation did show some tumor inhibition.

[4] = Bioavailability of CTO given orally as solid in capsule or as liquid in PEG-400; CAI in plasma by HPLC/MS; type: in vivo, dogs; settings: for Cmax / half-life: po; for Cmax: 685 mg/kg; for concentration at 1 h: measured as CAI, read-out: Plasma concentration after 1 hr
Protocol: The bioavailability of CTO (base:acid, 0.7:1.3) was determined by administering a single dose 685 mg/kg by capsule (Group 1) or by oral gavage in PEG400 (Group 2). Two dogs (1F/1M) were used in each group. Blood samples were collected at 0, 1, 2, 4, 8, 12, 24, 48, 72, and 92 hours. CAI was measured by HPLC/MS.

[5] = CTO concentration (as CAI) in brain tissue after oral dosing; type: in vivo, mice; settings: mouse, eight hours after treatment, read-out: CAI levels in brain tissue
Protocol: CTO was given orally (in PEG400) to six week old mice sorted in two Groups of 6. Two doses were administered-Group 1=513 mg/kg; Group 2=342 mg/kg. Eight hours after treatment with CTO, the mice were euthanized for measurement of CTO concentration (as CAI) in brain tissue.

[6] = type: in vivo; settings: dogs, PO, 175, 350, 1025 mg/kg/day, after 28 days

NC(=O)c1nnn(Cc2cc(Cl)c(C(=O)c3ccc(Cl)cc3)c(Cl)c2)c1N [CAI, 5-Amino-1-(4-(4-chlorobenzoyl)-3,5-dichlorobenzyl)-1,2,3-triazole-4-carboxamide]
gastric lesions and toxicity [1]: less gastric lesions and toxicity

NC(=O)c1nnn(Cc2cc(Cl)c(C(=O)c3ccc(Cl)cc3)c(Cl)c2)c1N.O=C(O)c1cc(=O)[nH]c(=O)[nH]1 [L651582 Orotate]
antitumor activity [2]: improved antitumor activity

NC(=O)c1nnn(Cc2cc(Cl)c(C(=O)c3ccc(Cl)cc3)c(Cl)c2)c1N [CTO, 5-Amino-1-(4-(4-chlorobenzoyl)-3,5-dichlorobenzyl)-1,2,3-triazole-4-carboxamide, compound with orotic acid]
mean tumor volume [3]: 864 mm^3
bioavailability ([4]; both sexes, dog, plasma, oral gavage in PEG400, single dose 685 mg/kg, dogs, read-out: Bioavailability relative to Group 1 (capsule, 100%)): 81.8%
AUC ([4]; capsule, single dose 685 mg/kg, female dog): 277 µg/mL
AUC ([4]; capsule, single dose 685 mg/kg, male dog): 326 µg/mL
Cmax ([4]; female, dog, plasma, capsule, single dose 685 mg/kg, female dog): 7.95 µg/mL
Cmax ([4]; female, dog, plasma, oral gavage in PEG400, single dose 685 mg/kg, female dog): 5.35 µg/mL
Cmax ([4]; male, dog, plasma, capsule, single dose 685 mg/kg, male dog): 5.8 µg/mL
Cmax ([4]; male, dog, plasma, oral gavage in PEG400, single dose 685 mg/kg, male dog): 6.63 µg/mL
concentration at 1 h ([4]; plasma, oral, capsule, single dose 685 mg/kg, female dog): 0.174 µg/mL
concentration at 1 h ([4]; plasma, oral, capsule, single dose 685 mg/kg, male dog): 0.155 µg/mL
half-life ([4]; plasma, capsule, single dose 685 mg/kg, female dog): 22.7 h
half-life ([4]; plasma, capsule, single dose 685 mg/kg, male dog): 18 h
concentration at 1 h ([4]; plasma, oral gavage in PEG400, single dose 685 mg/kg, female dog): 0.57 µg/mL
concentration at 1 h ([4]; plasma, oral gavage in PEG400, single dose 685 mg/kg, male dog): 0.511 µg/mL
concentration at 8 h ([5]; CTO 342 mg/kg orally in PEG400, mice): 11000 ± 1700 ng/g
concentration at 8 h ([5]; CTO 513 mg/kg orally in PEG400, mice): 15200 ± 2370 ng/g
deaths [6]: no deaths occurred
